Like-named read-outs stand apart in the source and are kept apart here.
Columns and labels:
[1] = target: T1, trypsin from bovine pancreas (Bos taurus, UniProt P00760); assay: In vitro trypsin conversion of prodrug to tapentadol and inhibition thereof by Compound 109; format: biochemical; settings: 4815 BAEE U trypsin/mL
T1 construct: purchased Sigma-Aldrich T8003; host or cells: bovine pancreas
T1 sequence (P00760 24-246): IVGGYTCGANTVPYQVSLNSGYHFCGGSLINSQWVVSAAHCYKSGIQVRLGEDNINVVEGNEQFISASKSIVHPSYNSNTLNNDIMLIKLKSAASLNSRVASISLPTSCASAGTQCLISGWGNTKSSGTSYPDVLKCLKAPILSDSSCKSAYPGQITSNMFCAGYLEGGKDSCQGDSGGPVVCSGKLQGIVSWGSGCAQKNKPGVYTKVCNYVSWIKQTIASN
Method: (§1) Compound TP-1 was incubated with trypsin from bovine pancreas (Catalog No. T8003, Type I, ˜10,000 BAEE units/mg protein, Sigma-Aldrich). Specifically, the reactions included 0.761 nM of Compound TP-1•2HCl, 22.5 mM calcium chloride, 40 to 172 mM Tris pH 8 and 0.25% DMSO with the BAEE units of trypsin indicated in Table 4. The reactions were conducted at 37° C. for 24 hr. Samples were collected at specified time points, transferred into 0.5% formic acid in acetonitrile to stop trypsin activity and stored at less than −70° C. until analysis by LC-MS/MS.
(§2) Compound TP-1 was also incubated in the presence of 2 micromolar (μM) trypsin inhibitor Compound 109. In that case, Compound TP-1 was added 5 min after the other incubation components. Other reaction and sample treatment conditions were as described above.
(§3) Table 4 indicates the results of exposure of Compound TP-1 to trypsin in the absence or presence of trypsin inhibitor. The results are expressed as half-life of prodrug when exposed to trypsin (i.e., Prodrug trypsin half-life) in hours and rate of tapentadol (TP) formation in umol/h/BAEE U trypsin.
(§4) Compound TP-1, Compound TP-3, or Compound TP-4 (which can be prepared as described in the examples herein) were incubated in the absence or presence of Compound 109 as shown in Table 8. Incubations and analysis procedures were as described in Example 14.

[2] = target: T2, trypsin (Bos taurus, UniProt P00760); assay: as above; format: biochemical, bovine; settings: bovine, trypsin from bovine pancreas, pH 8, with Compound 109 (trypsin inhibitor); Table 8; 4815 BAEE U trypsin/mL, Compound 109 40 μM; read-out: Pro-drug trypsin half-life, Average ± sd (converted)
T2 construct: purchased Sigma-Aldrich T8003; host or cells: bovine pancreas
T2 sequence (P00760 24-246): T1 sequence (P00760 24-246)
Method: as §1, §2, §3, §4

[3] = Plasma and cerebrospinal fluid penetration following IV administration to rats; format: in vivo, rat; settings: for concentration at 2 min: male, Sprague Dawley, rat, in vivo, TP-1 10 mg/kg, tapentadol 4 mg/kg
Method: Compound TP-1 (which can be prepared as described in the examples herein) at a dose of 10 mg/kg, or tapentadol, at a dose of 4 mg/kg, were dissolved in saline and injected into the tail vein of 4 male Sprague Dawley rats. These doses represent approximately equimole amounts. After 2 minutes, the rats were anesthetized by carbon dioxide asphyxiation, blood samples were drawn and harvested for plasma by centrifugation at 5,400 rpm at 4° C. for 5 min, and 100 μl plasma was transferred from each sample into a fresh tube containing 2 μl of 50% formic acid. The CSF fluid was collected using a 22×1 inch gauge needle connected to polyurethane catheter type MRE-040 tubing (Braintree Scientific, Inc., Braintree, Mass.). The needle was inserted just below the nuchal crest at the area of the foramen magnum, and clear CSF fluid was collected into the catheter and transferred into a collection tube. The CSF samples were centrifuged at 5,400 rpm at 4° C. for 5 min, and 100 μl CSF fluid was transferred from each sample into a fresh tube. The plasma and CSF samples were immediately placed in dry ice and then stored in a −80° C. freezer until analysis by high performance liquid chromatography/mass spectrometry (HPLC/MS). In order to study Compound TP-1 and tapentadol plasma and CSF penetration over time, additional groups of 4 rats were administered compounds as described above and anesthetized at specified time points. Plasma and CSF were collected and analyzed as described above.
Results in Table 14 are reported, for each group of four rats, as mean concentrations of the indicated compounds in plasma or CSF. Table 14 also provides the plasma-to-CSF (plasma/CSF) partitioning coefficient, i.e., the ratio of concentration in the plasma to concentration in the CSF of the indicated compounds.

[4] = target: human μ-opioid receptor (Homo sapiens, UniProt P35372); assay: In vitro human μ-opioid receptor agonist cellular functional assay (cAMP, CHO cells); format: cell-based; set-up: expressed in transfected cells; settings: CHO cells expressing human μ-opioid receptor, 37° C., 10 min
Sequence of human μ-opioid receptor (P35372 whole entry): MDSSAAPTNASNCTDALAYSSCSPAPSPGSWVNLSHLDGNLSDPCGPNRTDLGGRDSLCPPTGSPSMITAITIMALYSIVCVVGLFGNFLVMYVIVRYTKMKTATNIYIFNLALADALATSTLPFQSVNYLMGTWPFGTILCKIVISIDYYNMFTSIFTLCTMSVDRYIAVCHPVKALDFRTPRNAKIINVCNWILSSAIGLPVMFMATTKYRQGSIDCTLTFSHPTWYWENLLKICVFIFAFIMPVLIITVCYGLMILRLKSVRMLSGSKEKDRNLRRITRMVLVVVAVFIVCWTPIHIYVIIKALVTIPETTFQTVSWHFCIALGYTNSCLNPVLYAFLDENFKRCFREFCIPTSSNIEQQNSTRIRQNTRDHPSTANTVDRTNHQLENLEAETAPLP
Method: The general procedure follows the protocol described by J.-B. Wang, et al, ibid. More specifically, the assay included as appropriate, Compound TP-1 or tapentadol and recombinant Chinese hamster ovary (CHO) cells expressing the human μ-opioid receptor on their cell surfaces. The control reaction included 1 μM DAMGO. The reaction mixtures were incubated at 37° C. for 10 min, and the reaction product was cyclic AMP (cAMP). The samples were submitted to homogeneous time resolved fluorescence (HTRF®). EC50 values (concentration producing a half-maximal specific response) were determined by non-linear regression fit using Hill plot software.

[5] = system: norepinephrine uptake into rat hypothalamus synaptosomes; assay: In vitro functional norepinephrine uptake assay; format: biochemical; settings: rat hypothalamus synaptosomes
Method: The general procedure follows the protocol described by S. Perovic and W. E. G. Muller, 1995, Arzneim-Forsch. Drug Res. 45, 1145-1148. More specifically, the assays included each of the compounds indicated in Table 13 and rat hypothalamus synaptosomes incubated with 0.2 μCi/mL [^3H] norepinephrine. For a control reaction, protriptyline was used. The reaction mixtures were incubated at 37° C. for 20 min, and the reaction product of [^3H] norepinephrine incorporation into the synaptosomes was measured by scintillation counting. IC50 values (concentration causing a half-maximal inhibition of control specific activity) were determined by non-linear regression fit using Hill plot software.

[6] = Pharmacokinetics following PO administration to dogs; format: in vivo, dog; settings: approximately equimole amounts
Method: Purebred male young adult/adult beagles were fasted overnight. Compound TP-1 (which can be prepared as described in the examples herein) or tapentadol (which can be prepared as described in PCT patent application No. WO28012046A1) were administered in approximately equimole amounts in water via oral gavage followed immediately by flushing the gavage tube with 5 mL water prior to withdrawal. Blood was collected from each animal predose and following dose administration at 0.25, 0.5, 1, 2, 3, 4, 6, 8, 10, 12 and 24 hours postdose. Blood samples were centrifuged and 0.8 mL plasma transferred to fresh tubes containing 8 μl formic acid; samples were vortexed, then immediately placed in dry ice and stored in a −80° C. freezer until analysis by HPLC/MS.
Table 5 and FIG. 6 provide tapentadol exposure results for dogs administered Compound TP-1 or tapentadol. Results in Table 5 are reported for each group of four dogs as described in Example 11.

CC[C@@H](c1cccc(OC(=O)N(C)CCNC(=O)[C@H](CCCNC(=N)N)NC(=O)CC(=O)O)c1)[C@@H](C)CN(C)C [Compound TP-1, N—[(S)-1-(2-{[3-((1R,2R)-3-dimethylamino-1-ethyl-2-methyl-propyl)-phenoxycarbonyl]-methyl-amino}-ethylcarbamoyl)-4-guanidino-butyl]-malonamic acid]
Rate of TP formation, Average ± sd ([1]; Table 4, Compound 109 0 μM): 0.0302 ± 0.002 umol/h/BAEE U
Rate of TP formation, Average ± sd ([1]; Table 4, Compound 109 2 μM): 0.0243 ± 0.0008 umol/h/BAEE U
Rate of TP formation, Average ± sd ([1]; Table 8, Compound 109 0 μM): 0.0302 ± 0.002 umol/h/BAEE U
Rate of TP formation, Average ± sd ([1]; Table 8, Compound 109 2 μM): 0.0243 ± 0.0008 umol/h/BAEE U
half-life at 0.761 nM [2]: 3.94 ± 0.18 h
relative plasma/CSF partitioning coefficient of Compound TP-1 to tapentadol (fold less CSF-penetrant) ([3]; 671/10.4): about 64 fold
concentration at 2 min ([3]; rats, IV, 2 minutes after dosing, read-out: Compound conc. in CSF): 65.3 ng/mL
concentration at 2 min ([3]; rats, IV, 2 minutes after dosing, read-out: Compound conc. in Plasma): 43800 ng/mL
Plasma/CSF partitioning coefficient ([3]; rats, IV, 2 minutes after dosing, ratio of concentration in plasma to concentration in CSF): 671
agonist response in the μ-opioid receptor functional assay [4]: weak response was seen at 100 μM
activity as a norepinephrine reuptake inhibitor [5]: no detectable activity
tapentadol PK profile compared to administration of tapentadol [6]: delayed Tmax and increased AUC

From US9238020B2, “Compositions comprising enzyme-cleavable phenol-modified tapentadol prodrug” (priority 2010, dated 2016)
